From patent publication US9657351B2, “MRNA-based gene expression for personalizing patient cancer therapy with an MDM2 antagonist” (Hoffmann-La Roche Inc., priority 2013, dated 2017)
Where “and” joins values, the source holds several entries; their conditions need not be identical. Equal entries are not always repeated.

Experiments:
MDM2 mRNA [1] = assay: NP21280 solid tumor trial, tumor biopsy biomarker (MDM2 mRNA); assay type: in vivo, human; conditions: at C1D10, p=1.03×10−5
MDM2 mRNA [2] = assay: NO21279 pharmacodynamic response, MDM2 mRNA by quantitative real-time PCR in leukemia cells; assay type: in vivo, human
Description: The performance of the MDM2 antagonist predictive mRNA response signature is tested in the clinical setting with specimens from the NO21279 leukemia trial (FIG. 1). 28 AML patients treated at the MTD are enrolled and completed pretreatment and C1D10 (cycle 1, day 10) sampling. […] The clinical endpoint in NO21279 was divided into 4 categories: Complete Response (CR), Morphologic Leukemia-Free State (MLFS), Hematologic Improvement (HI), and Progressive Disease (PD). Blood leukemia samples and bone marrow biopsy samples were collected at baseline screening, after a single dose (cycle 1 day 2, C1D2) and on last day of dosing (cycle 1, day 10, C1D10) and isolated via MACS® separation^11. The early pharmacodynamic effect of MDM2 antagonism in blood leukemia samples was assessed by measuring MDM2 RT PCR change between baseline and C1D10. Global gene expression profiles were generated for the peripheral blood leukemia cells and bone marrow biopsy samples obtained at baseline, C1D2 and C1D10.
MDM2 mRNA concentrations were assessed at Roche Molecular Systems by quantitative real-time PCR with 50 ng total RNA from MACs isolated leukemia cells from blood. TaqMan (Invitrogen, Carlsbad, Calif., USA) probes were designed to detect MDM2 mRNA and the reference mRNA, beta-glucuronidase, simultaneously using two different fluorescent reporters. Gene expression profiles were generated using Affymetrix U133 Plus 2.0 microarrays. Probset ID's for the each of the four genes on said U133 Plus 2.0 microarray are: 209375_s_at (for XPC); 205386_s_at and 211832_s_at (MDM2); 211692_s_at (BBC3); 207039_at and 211156_at (CDKN2A). […] The predictive patient signature score according to the present invention is then calculated using the following equation: patient signature score=GMDM2+GXPC+GBBC3−GCDKN2A. […] For example, for the patient data reported in Table 9 (Example 5), G is log 2 of the mRNA probeset expression of the relevant gene as measured with Affymetrix U133 Plus 2.0 microarrays.

22Rv1 = assay: COMPOUND A In Vitro Assay; assay type: cell-based, human; conditions: for IC50: Homo sapiens
Description: (§1) To generate an MDM2 antagonist therapy predictive signature, the response of MDM2 antagonist therapy in vitro with gene expression profiling (FIG. 1) is combined. A bank of 287 human cancer cell lines, collectively termed the Cell Lines for Oncology/Chugai ACcumulative Tumour EncycLopedia (CELLO/CACTEL), representing a broad array of diverse human cancer tumor types are subject to evaluation using several high-throughput genomic technology platforms. The mutational status of nucleic acids from each cell line is determined by exome sequencing. Messenger RNA (mRNA) expression levels at baseline, prior to MDM2 antagonist therapy, are obtained via RNA sequencing. MDM2 antagonist therapy COMPOUND A, sometimes referred to herein as RG7112, responses are obtained by assays known to those skilled in the art such as RNA sequencing and microarray measurement using Gene Chip Human Genome U133 Plus 2.0 Array. The MDM2 therapy responses are obtained by high throughout screening assays. Depending on their responses to COMPOUND A these cell lines are classified as either sensitive, defined as IC50<=1, or resistant, defined as IC50>=10.
(§2) 281 cells are treated with MDM2 antagonists and the IC50 (therapy response) is generated. The cell lines span a broad range of tumor cell types of derivation.

KMS-12-BM = assay: COMPOUND A In Vitro Assay; assay type: cell-based, human; conditions: TP53 mutant cell line
Description: as §1, §2

MKN-45 = assay: COMPOUND A In Vitro Assay; assay type: cell-based, human; conditions: for IC50: Homo sapiens
Description: as §1, §2

KMS-26 = assay: COMPOUND A In Vitro Assay; assay type: cell-based, human; conditions: for IC50: Homo sapiens
Description: as §1, §2

NCI-H2122 = assay: COMPOUND A In Vitro Assay; assay type: cell-based, human; conditions: for IC50: Homo sapiens
Description: as §1, §2

LN-18 = assay: COMPOUND A In Vitro Assay; assay type: cell-based, human; conditions: for IC50: Homo sapiens
Description: as §1, §2

NCI-H226 = assay: COMPOUND A In Vitro Assay; assay type: cell-based, human; conditions: for IC50: Homo sapiens
Description: as §1, §2

SW1463 = assay: COMPOUND A In Vitro Assay; assay type: cell-based, human
Description: as §1, §2

DU145 = assay: COMPOUND A In Vitro Assay; assay type: cell-based, human
Description: as §1, §2

PC-9 = assay: COMPOUND A In Vitro Assay; assay type: cell-based, human; conditions: for IC50: Homo sapiens
Description: as §1, §2

LCLC-103H = assay: COMPOUND A In Vitro Assay; assay type: cell-based, human
Description: as §1, §2

P21 = assay: NP21280 solid tumor trial, tumor biopsy biomarker (p21 IHC); assay type: in vivo, human; conditions: p=2.32×10−3
Description: The predictive mRNA signature is also evaluated in two solid tumor trials (FIG. 1). […] In both clinical trials, a biomarker package that enabled assessment of p53 pathway activation is assessed (p53 IHC, p21 IHC, MDM2 mRNA, and Ki67), MDM2 inhibition activates the P53 pathway and decreases cell proliferation.

CCOc1cc(C(C)(C)C)ccc1C1=N[C@@](C)(c2ccc(Cl)cc2)[C@@](C)(c2ccc(Cl)cc2)N1C(=O)N1CCN(CCCS(C)(=O)=O)CC1 [COMPOUND A]
MDM2 mRNA expression change from baseline (MDM2 mRNA [1]): significantly increase | median MDM2 mRNA expression increase over baseline (MDM2 mRNA [2]; C1D10 vs baseline, IQR 1.62-4.59, NO21279): 2.46 times | MDM2 mRNA (RT-PCR) fold change over baseline (C1D10), median increase (MDM2 mRNA [2]; all patients, IQR 1.62-4.59): 2.46x (IQR: | MDM2 mRNA (RT-PCR) fold change over baseline (C1D10) (MDM2 mRNA [2]; individual AML patients (no. 1-28), NO21279, blood leukemia cells, listed as RG7112): 2.23 fold and 5.67 fold and 5.05 fold and 9.66 fold and 1.79 fold and 23.00 fold and 2.01 fold and 1.72 fold and 5.07 fold and 3.20 fold and 4.35 fold and 1.27 fold and 2.51 fold and 0.96 fold and 1.69 fold and 2.26 fold and 1.52 fold and 3.88 fold and 2.65 fold and 5.11 fold and 9.46 fold and 1.00 fold and 1.59 fold and 1.67 fold and 3.00 fold | response to COMPOUND A (sensitive / resistant) (22Rv1; 22Rv1, TP53 mutant cell line): sensitive (sensitive, defined as IC50<=1) | IC50 (22Rv1; 22Rv1, 22Rv1, Prostate, TP53 Mutant): 0.97 µM | IC50 (22Rv1; 22Rv1, 22Rv1 cells): 1 µM | response to COMPOUND A (sensitive / resistant) (KMS-12-BM): sensitive (sensitive, defined as IC50<=1) | IC50 (MKN-45; MKN-45, MKN-45, Stomach, TP53 Mutant): 0.18 µM | IC50 (MKN-45; MKN-45, MKN-45 cells): 0.2 µM | response to COMPOUND A (sensitive / resistant) (MKN-45; MKN-45, TP53 mutant cell line): sensitive (sensitive, defined as IC50<=1) | IC50 (KMS-26; KMS-26, KMS-26, Lymphocyte, TP53 Mutant): 0.45 µM | IC50 (KMS-26; KMS-26, KMS-26 cells): 0.5 µM | response to COMPOUND A (sensitive / resistant) (KMS-26; KMS-26, TP53 mutant cell line): sensitive (sensitive, defined as IC50<=1) | IC50 (NCI-H2122; NCI-H2122, NCI-H2122, Lung, TP53 Mutant): 0.16 µM | IC50 (NCI-H2122; NCI-H2122, NCI-H2122 cells): 0.2 µM | response to COMPOUND A (sensitive / resistant) (NCI-H2122; NCI-H2122, TP53 mutant cell line): sensitive (sensitive, defined as IC50<=1) | IC50 (LN-18; LN-18, LN-18, Brain, temporal lobe, TP53 Mutant): 0.67 µM | IC50 (LN-18; LN-18, LN-18 cells): 0.7 µM | response to COMPOUND A (sensitive / resistant) (LN-18; LN-18, TP53 mutant cell line): sensitive (sensitive, defined as IC50<=1) | IC50 (NCI-H226; NCI-H226, NCI-H226, Lung, TP53 Mutant): 0.13 µM | IC50 (NCI-H226; NCI-H226, NCI-H226 cells): 0.1 µM | response to COMPOUND A (sensitive / resistant) (NCI-H226; NCI-H226, TP53 mutant cell line): sensitive (sensitive, defined as IC50<=1) | IC50 (SW1463; Homo sapiens, Intestine, large, rectum, TP53 Mutant): 1 µM | response to COMPOUND A (sensitive / resistant) (SW1463; TP53 mutant cell line): sensitive (sensitive, defined as IC50<=1) | IC50 (DU145; Homo sapiens, DU-145, Prostate, TP53 Mutant): 1 µM | response to COMPOUND A (sensitive / resistant) (DU145; TP53 mutant cell line): sensitive (sensitive, defined as IC50<=1) | IC50 (PC-9; PC-9, PC-9, Lung, TP53 Mutant): 0.69 µM | IC50 (PC-9; PC-9, PC-9 cells): 0.7 µM | response to COMPOUND A (sensitive / resistant) (PC-9; PC-9, TP53 mutant cell line): sensitive (sensitive, defined as IC50<=1) | IC50 (LCLC-103H; Homo sapiens, Lung, TP53 Mutant): 0.7 µM | response to COMPOUND A (sensitive / resistant) (LCLC-103H; TP53 mutant cell line): sensitive (sensitive, defined as IC50<=1) | P21 concentration change from baseline (P21): significantly increase
